Measurements: ChEMBL document CHEMBL1148215, “Lipoxygenase inhibitory constituents from Periploca aphylla” (J Nat Prod, 2004)

Assay: Inhibition of Lipoxygenase 1B

| IC50 [µM] | Compound |
| --- | --- |
| 150 | CC(C)(O)/C=C/C1=CC(=O)[C@H](O)C[C@]1(C)O |
| 19.7 | Oc1cc(O)c2c(c1)O[C@H](c1ccc(O)c(Oc3cc([C@H]4Oc5cc(O)cc(O)c5C[C@@H]4O)ccc3O)c1)[C@@H](O)C2 |
| 13.5 | Oc1cc(O)c2c(c1)O[C@H](c1ccc(O)c(Oc3cc(O)c4c(c3)O[C@H](c3ccc(O)c(O)c3)[C@H](O)C4)c1)[C@H](O)C2 |
| 22.6 | O=c1cc(-c2ccccc2)oc2cc(O)c(O)c(O)c12 [BAICALEIN] |
